Measured values reported in patent US20240238317A1, “METHODS FOR REDUCING INTRAOCULAR PRESSURE” (UNIVERSITY OF MISSISSIPPI, priority 2021, published 2024).
Where “and” joins values, the source holds several entries; their conditions need not be identical. Identical values can stand only once.

Experiments:
[1] = test system: IOP in test eye of DB rabbits; assay: Single treatment multiple day application study: IOP lowering after topical administration of one formulation (QD, 5 days); format: in vivo, pigmented (Dutch Belted; DB) rabbits; design: Test eye IOP: unit not given here; conditions: for Drop in IOP: test eye
Description: The rabbits were split into three groups.
The IOP profile following multi-day (QD, 5 days) exposure to a single formulation, in pigmented DB rabbits, is presented in FIGS. 1-26.

[2] = test system: IOP in test eye of DB rabbits; assay: Combination dose multiple day application study: IOP lowering after topical co-administration of two formulations (second 15 minutes after first)
IOP = conditions: topical application; cited from earlier work
[3] = Average of days 1, 3, 5, 30 min
[4] = Average of days 1, 3, 5, 60 min
[5] = Average of days 1, 3, 5, 90 min
[6] = Average of days 1, 3, 5, 120 min
[7] = Average of days 1, 3, 5, 150 min
[8] = Average of days 1, 3, 5, 180 min
[9] = Average of days 1, 3, 5, 240 min
[10] = Average of days 1, 3, 5, 300 min
[11] = Average of days 1, 3, 5, 360 min
[12] = Average of days 1, 3, 5, 420 min
[13] = Average of days 1, 3, 5, 480 min
[14] = Average of days 1, 3, 5, 540 min
[15] = Average of days 1, 3, 5, 1440 min

## CC(C)OC(=O)CCC/C=C\C[C@@H]1[C@@H](CC[C@@H](O)CCc2ccccc2)[C@H](O)C[C@@H]1O [Latanoprost]
[1]; Average of days 1, 3, 5, 0 min
  Test eye IOP: 24.6
  Drop in IOP: 0.0%
[1]; [3]
  Test eye IOP: 20.1
  Drop in IOP: −18.3%
[1]; [4]
  Test eye IOP: 19.6
  Drop in IOP: −20.3%
[1]; [5]
  Test eye IOP: 19.5
  Drop in IOP: −20.5%
[1]; [6]
  Test eye IOP: 19.7
  Drop in IOP: −19.8%
[1]; [7]
  Test eye IOP: 19.6
  Drop in IOP: −20.5%
[1]; [8]
  Test eye IOP: 20.0
  Drop in IOP: −18.7%
[1]; [9]
  Test eye IOP: 19.5
  Drop in IOP: −20.6%
[1]; [10]
  Test eye IOP: 19.7
  Drop in IOP: −21.7%
[1]; [11]
  Test eye IOP: 19.9
  Drop in IOP: −19.1%
[1]; [12]
  Test eye IOP: 21.0
  Drop in IOP: −14.5%
[1]; [13]
  Test eye IOP: 23.9
  Drop in IOP: −2.9%
[1]; [14]
  Test eye IOP: 24.8
  Drop in IOP: 0.7%
[1]; [15]
  Test eye IOP: 24.4
  Drop in IOP: −2.2%
[1]; Day 1, 0 min
  Test eye IOP: 25.2
  Drop in IOP: 0.0%
[1]; Day 1, 30 min
  Test eye IOP: 20.0
  Drop in IOP: −20.5%
[1]; Day 1, 60 min
  Test eye IOP: 19.6
  Drop in IOP: −21.9%
[1]; Day 1, 90 min
  Test eye IOP: 19.2
  Drop in IOP: −23.7%
[1]; Day 1, 120 min
  Test eye IOP: 19.8
  Drop in IOP: −21.3%
[1]; Day 1, 150 min
  Test eye IOP: 19.4
  Drop in IOP: −22.9%
[1]; Day 1, 180 min
  Test eye IOP: 20.2
  Drop in IOP: −19.7%
[1]; Day 1, 240 min
  Test eye IOP: 19.7
  Drop in IOP: −21.8%
[1]; Day 1, 300 min
  Test eye IOP: 19.7
  Drop in IOP: −21.7%
[1]; Day 1, 360 min
  Test eye IOP: 19.7
  Drop in IOP: −21.7%
[1]; Day 1, 420 min
  Test eye IOP: 20.9
  Drop in IOP: −16.8%
[1]; Day 1, 480 min
  Test eye IOP: 23.8
  Drop in IOP: −5.4%
[1]; Day 1, 540 min
  Test eye IOP: 25.2
  Drop in IOP: 0.3%
[1]; Day 1, 1440 min
  Test eye IOP: 24.4
  Drop in IOP: −3.0%
[1]; Day 3, 0 min
  Test eye IOP: 24.6
  Drop in IOP: 0.0%
[1]; Day 3, 30 min
  Test eye IOP: 19.8
  Drop in IOP: −19.4%
[1]; Day 3, 60 min
  Test eye IOP: 19.5
  Drop in IOP: −20.7%
[1]; Day 3, 90 min
  Test eye IOP: 19.8
  Drop in IOP: −19.6%
[1]; Day 3, 120 min
  Test eye IOP: 19.6
  Drop in IOP: −20.3%
[1]; Day 3, 150 min
  Test eye IOP: 19.6
  Drop in IOP: −20.3%
[1]; Day 3, 180 min
  Test eye IOP: 20.0
  Drop in IOP: −18.7%
[1]; Day 3, 240 min
  Test eye IOP: 19.6
  Drop in IOP: −20.5%
[1]; Day 3, 360 min
  Test eye IOP: 19.6
  Drop in IOP: −20.3%
[1]; Day 3, 420 min
  Test eye IOP: 21.0
  Drop in IOP: −14.7%
[1]; Day 3, 480 min
  Test eye IOP: 23.7
  Drop in IOP: −3.6%
[1]; Day 3, 540 min
  Test eye IOP: 24.5
  Drop in IOP: −0.4%
[1]; Day 3, 1440 min
  Test eye IOP: 24.2
  Drop in IOP: −3.6%
[1]; Day 5, 0 min
  Test eye IOP: 24.1
  Drop in IOP: 0.0%
[1]; Day 5, 30 min
  Test eye IOP: 20.4
  Drop in IOP: −15.2%
[1]; Day 5, 60 min
  Test eye IOP: 19.7
  Drop in IOP: −18.2%
[1]; Day 5, 90 min
  Test eye IOP: 19.7
  Drop in IOP: −18.2%
[1]; Day 5, 120 min
  Test eye IOP: 19.8
  Drop in IOP: −17.8%
[1]; Day 5, 150 min
  Test eye IOP: 19.7
  Drop in IOP: −18.2%
[1]; Day 5, 180 min
  Test eye IOP: 19.8
  Drop in IOP: −17.5%
[1]; Day 5, 240 min
  Test eye IOP: 19.3
  Drop in IOP: −19.6%
[1]; Day 5, 360 min
  Test eye IOP: 20.3
  Drop in IOP: −15.4%
[1]; Day 5, 420 min
  Test eye IOP: 21.2
  Drop in IOP: −12.0%
[1]; Day 5, 480 min
  Test eye IOP: 24.1
  Drop in IOP: 0.3%
[1]; Day 5, 540 min
  Test eye IOP: 24.6
  Drop in IOP: 2.1%
[1]; Day 5, 1440 min
  Test eye IOP: 24.7
  Drop in IOP: 0.0%
[1]; single formulation
  IOP returned to baseline (time): ≤ 480 min
[1]; single formulation, QD, 5 days
  average max drop in IOP: about 21.3+2.1%
[1]; single formulation, Day 1
  Max IOP drop (%): −23.7%
  Max IOP drop (mmHg): 6.0 mmHg and 6 mmHg
  Time of max IOP drop (%): 90 min
  Time of max IOP drop (mmHg): 90 min
[1]; single formulation, Day 3
  Max IOP drop (%): −20.7%
  Max IOP drop (mmHg): 5.1 mmHg
  Time of max IOP drop (%): 60 min
  Time of max IOP drop (mmHg): 60 min
[1]; single formulation, Day 5
  Max IOP drop (%): −19.6%
  Max IOP drop (mmHg): 4.7 mmHg
  Time of max IOP drop (%): 240 min
  Time of max IOP drop (mmHg): 240 min
[1]; single formulation, day 1
  time to max drop in IOP: 60 min
[1]; single formulation, day 3
  time to max drop in IOP: 90 min
[1]; single formulation, day 5
  time to max drop in IOP: 240 min
[1]; single formulation, from 30 to 420 mins
  maintained average drop in IOP: 19.4 ± 1.9%
[2]
  comparison of IOP lowering of combinations with single treatments: decreased the efficacy of both THC-VHS-NEC and Rhopressa® when combined

## CCCCCc1cc(O)c2c(c1)OC(C)(C)[C@@H]1CCC(C)=C[C@@H]21 [THC, Delta-9-tetrahydrocannabinol]
IOP
  effect on IOP: no effect on IOP
